Source: ChEMBL document CHEMBL4699433, “Rational design, synthesis and testing of novel tricyclic topoisomerase inhibitors for the treatment of bacterial infections part 2” (RSC Med Chem, 2020)
In brackets after ≈: the same amount, converted by molar mass.

What was measured:
Streptococcus pneumoniae = assay: Antibacterial activity against Streptococcus pneumoniae ATCC 49619 assessed as reduction in bacterial growth by CLSI based broth microdilution method; assay type: functional
Escherichia coli = assay: Antibacterial activity against Escherichia coli ATCC 25922 assessed as reduction in bacterial growth by CLSI based broth microdilution method; assay type: functional
[1] = Thermodynamic solubility of the compound; assay type: physicochemical; conditions: read-out: Therm_solubility
Staphylococcus aureus = assay: Antibacterial activity against wild type methicillin-sensitive Staphylococcus aureus ATCC 29213 assessed as reduction in bacterial growth by CLSI based broth microdilution method; assay type: functional
Haemophilus influenzae = assay: Antibacterial activity against Haemophilus influenzae ATCC 49247 assessed as reduction in bacterial growth by CLSI based broth microdilution method; assay type: functional

| SMILES | MIC (Streptococcus pneumoniae) [µg/mL] | MIC (Escherichia coli) [µg/mL] | solubility thermodynamic [1] [µg/mL] | MIC (Staphylococcus aureus) [µg/mL] | MIC (Haemophilus influenzae) [µg/mL] |
| --- | --- | --- | --- | --- | --- |
| Cc1nc2c(=O)n(C3CC3)c3c(Cl)c(N4CCC(N(C)C)C4)c(F)cc3c2o1 (stereo unspecified) | 4 (≈ 9.88 µM) | 4 (≈ 9.88 µM) |  | 4 (≈ 9.88 µM) | 8 (≈ 19.8 µM) |
| Cc1nc2c(=O)n(C3CC3)c3cc(N4CCC(N)CC4)c(F)cc3c2o1 | 1 (≈ 2.81 µM) | 2 (≈ 5.61 µM) | 1400 (≈ 3940 µM) | 1 (≈ 2.81 µM) | 1 (≈ 2.81 µM) |
| Cc1nc2c(=O)n(C3CC3)c3c(Cl)c(N4C[C@@H](C)N[C@@H](C)C4)c(F)cc3c2o1 | 16 (≈ 39.5 µM) | 4 (≈ 9.88 µM) | 543 (≈ 1340 µM) | 8 (≈ 19.8 µM) | 8 (≈ 19.8 µM) |
| Cc1nc2c(=O)n(C3CC3)c3cc(N4CCC(C(C)N)C4)c(F)cc3c2o1 (stereo unspecified) | 1 (≈ 2.7 µM) | 4 (≈ 10.8 µM) | 1350 (≈ 3640 µM) | 1 (≈ 2.7 µM) | 4 (≈ 10.8 µM) |
| Cc1nc2c(=O)n(C3CC3)c3cc(N4CC[C@@H](C(C)(C)N)C4)c(F)cc3c2o1 | 2 (≈ 5.2 µM) | 8 (≈ 20.8 µM) | 1350 (≈ 3520 µM) | 2 (≈ 5.2 µM) | 16 (≈ 41.6 µM) |

Now those with a lower MIC (Streptococcus pneumoniae), led by results:

| MIC (Streptococcus pneumoniae) [µg/mL] | MIC (Escherichia coli) [µg/mL] | solubility thermodynamic [1] [µg/mL] | MIC (Staphylococcus aureus) [µg/mL] | MIC (Haemophilus influenzae) [µg/mL] | SMILES |
| --- | --- | --- | --- | --- | --- |
| 0.5 (≈ 1.4 µM) | 2 (≈ 5.61 µM) | 1400 (≈ 3940 µM) | 1 (≈ 2.81 µM) | 8 (≈ 22.4 µM) | Cc1nc2c(=O)n(C3CC3)c3cc(N4CC[C@H](CN)C4)c(F)cc3c2o1 |
| 0.5 (≈ 1.4 µM) | 2 (≈ 5.61 µM) |  | 0.5 (≈ 1.4 µM) | 8 (≈ 22.4 µM) | Cc1nc2c(=O)n(C3CC3)c3cc(N4CCC(CN)C4)c(F)cc3c2o1 (stereo unspecified) |
| 0.25 (≈ 0.617 µM) | 2 (≈ 4.94 µM) |  | 0.25 (≈ 0.617 µM) | 1 (≈ 2.47 µM) | CNC[C@H]1CCN(c2c(F)cc3c4oc(C)nc4c(=O)n(C4CC4)c3c2Cl)C1 |
| 0.12 (≈ 0.307 µM) | 0.5 (≈ 1.28 µM) | 601 (≈ 1540 µM) | 0.12 (≈ 0.307 µM) | 1 (≈ 2.56 µM) | Cc1nc2c(=O)n(C3CC3)c3c(Cl)c(N4CC[C@H](CN)C4)c(F)cc3c2o1 |
| 0.12 (≈ 0.307 µM) | 1 (≈ 2.56 µM) | 950 (≈ 2430 µM) | 0.12 (≈ 0.307 µM) |  | Cc1nc2c(=O)n(C3CC3)c3c(Cl)c(N4CC[C@@H](CN)C4)c(F)cc3c2o1 |
